For the experiment, the system named is pulmonary bullae. Nature of the experiment: Burst pressure of hydrogels as air sealants on collapsed pulmonary bullae of swine lungs. From the text: Swine lungs were obtained from freshly euthanized pigs. An endotracheal tube was inserted through the trachea and primary bronchus into the lung of interest. Pressure was supplied to the lungs with the use of a manual endotracheal intubation pump. The trachea was tied off to prevent air leakage around the tube. The other primary bronchus of the other lung was clamped to direct all airflow to the lung of interest. A manometer was used to measure the pressure of air directed into the lungs to induce expansion.
The self-assembling peptide hydrogels were comprised of Ac-RADARADARADARADA-NH2 (SEQ ID NO: 1) (i.e. RADA16) and Ac-IEIKIEIKIEIKI-NH2 (SEQ ID NO: 2) (i.e. IEIK13) with RADA16 used alone or mixed with calcium chloride. If alone, the peptides were reconstituted in deionized water. If, however the peptides were reconstituted with a salt solution, the peptides were reconstituted first in deionized water, and subsequently, a 2× solution of calcium chloride at a previously decided concentration which was mixed in at a 1:1 ratio.
Pulmonary bullae, as depicted in FIG. 25, are naturally occurring weak areas of the pleura. Prior to application of the hydrogels, the bullae were identified and collapsed using a 16 G needle. […]

“Arg-Ala-Asp-Ala-Arg-Ala-Asp-Ala-Arg-Ala-Asp-Ala-Arg-Ala-Asp-Ala [PuraMatrix®]”: under “2.5% RADA16 mixed with 0.250 M CaCl2”, the “burst pressure compared among formulations” value was “best burst pressure”. The “filling of collapsed bullae cavity, histological analysis” value (2.5% RADA16 with CaCl2) is listed as “entirely filled the pulmonary bullae cavity”.

The values are drawn from patent publication US10245299B2, “Autoassembling peptides for the treatment of pulmonary bulla” (3-D MATRIX, LTD., priority 2014, dated 2019).
